Values quoted from earlier work as cited in patent US8318201B2, “Method of stabilizing diarylvinylene compound” (Kyowa Hakko Kirin Co., Ltd., priority 2003, dated 2012).

Conditions: Bioorg. Med. Chem. Lett., vol. 7, p. 2349-2352 (1997); particularly unstable in a state of a solution

CCn1c(=O)c2c(nc(/C=C/c3ccc(OC)c(OC)c3)n2C)n(CC)c1=O [Compound 1, (E)-8-(3,4-dimethoxystyryl)-1,3-diethyl-7-methyl-3,7-dihydro-1H-purine-2,6-dione]
stability under irradiation of light (isomerization at the vinylene moiety): unstable particularly under irradiation of light
